# Reference: ChEMBL document CHEMBL4428076 (J Med Chem, 2016)
# Activity calls are given as the source filed them. The calls are words filed in the database; no cut-off is given here.
# What was measured:
# [1] = molecular target: Delta-type opioid receptor (Mus musculus, UniProt P32300); assay: Antagonist activity at mouse delta opioid receptor-1 expressed in CHO cell membranes assessed as inhibition of DPDPE-induced [35S]GTPgammaS binding incubated for 60 mins by scintillation spectroscopic analysis; format: functional
# [2] = molecular target: T1, Kappa-type opioid receptor (Mus musculus, UniProt P33534); assay: Displacement of [125I]-IBNtxA from mouse kappa opioid receptor-1 expressed in CHO cell membranes incubated for 90 mins
# Mu-type opioid receptor = Mu-type opioid receptor (Mus musculus, UniProt P42866); assay: Agonist activity at mouse mu opioid receptor-1 expressed in CHO cell membranes assessed as [35S]GTPgammaS binding incubated for 60 mins by scintillation spectroscopic analysis; format: functional
# [3] = molecular target: Mu-type opioid receptor (Mus musculus) (UniProt P42866); assay: Agonist activity at mouse mu opioid receptor-1 expressed in CHO cell membranes assessed as [35S]GTPgammaS binding incubated for 60 mins by scintillation spectroscopic analysis relative to DAMGO; format: functional
# [4] = molecular target: T1, Kappa-type opioid receptor; assay: Antagonist activity at mouse kappa opioid receptor-1 expressed in CHO cell membranes assessed as inhibition of U50,488H-induced [35S]GTPgammaS binding incubated for 60 mins by scintillation spectroscopic analysis; format: functional
# [5] = molecular target: 5-hydroxytryptamine receptor 7 (Homo sapiens) (UniProt P34969); assay: Displacement of [3H]LSD from recombinant human 5HT7A receptor expressed in HEK cell membrane after 90 mins by microbeta scintillation counting method
# [6] = molecular target: T2, Alpha-2C adrenergic receptor (Homo sapiens) (UniProt P18825); assay: Displacement of [3H]rauwolscine from recombinant human adrenergic alpha2C receptor expressed in MDCK cell membrane after 90 mins by microbeta scintillation counting method
# T2 sequence (whole entry): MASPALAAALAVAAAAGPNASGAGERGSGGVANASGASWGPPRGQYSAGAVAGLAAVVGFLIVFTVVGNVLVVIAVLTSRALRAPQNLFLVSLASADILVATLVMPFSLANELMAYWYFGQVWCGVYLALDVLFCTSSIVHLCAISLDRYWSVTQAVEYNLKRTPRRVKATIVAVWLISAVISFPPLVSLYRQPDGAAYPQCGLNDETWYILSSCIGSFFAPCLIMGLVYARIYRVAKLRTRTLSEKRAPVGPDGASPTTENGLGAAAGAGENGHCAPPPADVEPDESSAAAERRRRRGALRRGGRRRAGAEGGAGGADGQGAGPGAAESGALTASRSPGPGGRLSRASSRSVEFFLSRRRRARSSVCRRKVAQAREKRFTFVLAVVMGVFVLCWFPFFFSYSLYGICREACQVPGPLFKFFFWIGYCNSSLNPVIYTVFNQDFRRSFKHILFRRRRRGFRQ
# Mus musculus [7] = assay: Antinociceptive activity in icv dosed CD-1 mouse assessed as increase in reaction time measured 15 mins post dose by radiant heat tail flick assay; format: functional
# Mus musculus [8] = assay: Antinociceptive activity in CD-1 mouse assessed as time required for peak effect at 1.5 mg/kg, sc by radiant heat tail flick assay; format: functional
# Mus musculus [9] = assay: Potency index, ratio of morphine ED50 to compound ED50 in icv dosed CD-1 mouse; format: functional
# Mus musculus [10] = assay: Antinociceptive activity in 129Sv6 mouse assessed as increase in reaction time at 0.1 to 10 mg/kg, sc measured 15 mins post dose by radiant heat tail flick assay; format: functional, organism-based
# Mus musculus [11] = assay: Antinociceptive activity in C57BL/6 mouse assessed as increase in reaction time at 0.1 to 10 mg/kg, sc measured 15 mins post dose by radiant heat tail flick assay; format: functional, organism-based
# Mus musculus [12] = assay: Antinociceptive activity in CD-1 mouse assessed as increase in reaction time at 1.5 mg/kg, sc measured 15 mins post dose in presence of opioid antagonist naloxone by radiant heat tail flick assay; format: functional, organism-based
# Mus musculus [13] = assay: Antinociceptive activity in CD-1 mouse assessed as increase in reaction time at 1.5 mg/kg, sc measured 15 mins post dose in presence of adrenergic alpha2 receptor antagonist yohimbine by radiant heat tail flick assay; format: functional, organism-based
# Mus musculus [14] = assay: Antinociceptive activity in CD-1 mouse assessed as increase in reaction time at 1.5 mg/kg, sc administered on day 6 after MOR1-exon1 antisense oligodeoxynucleotide injection on day 1, 3 and 5 by radiant heat tail flick assay; format: functional, organism-based
# Mus musculus [15] = assay: Antinociceptive activity in CD-1 mouse assessed as increase in reaction time at 1.5 mg/kg, sc administered on day 6 after KOR1-exon2 antisense oligodeoxynucleotide injection on day 1, 3 and 5 by radiant heat tail flick assay; format: functional, organism-based
# Mus musculus [16] = assay: Antinociceptive activity in MOR-1 7TM/E1 splice variant knock out sc dosed C57BL/6 mouse assessed as increase in reaction time by radiant heat tail flick assay; format: functional; conditions: C57BL/6, sc
# Mus musculus [17] = assay: Antinociceptive activity in sc dosed C57BL/6 mouse assessed as increase in reaction time by radiant heat tail flick assay; format: functional; conditions: C57BL/6, sc
# [18] = Toxicity in CD-1 mouse assessed as time for drug tolerance at 1.5 mg/kg, sc bid at dosing intervals of 12 hrs; format: organism-based; conditions: in vivo
# Mus musculus [19] = assay: Antinociceptive activity in sc dosed CD-1 mouse assessed as increase in reaction time administered twice daily at dosing intervals of 12 hrs for 5 days by radiant heat tail flick assay; format: functional; conditions: CD-1, sc
# Mus musculus [20] = assay: Antinociceptive activity in sc dosed CD-1 mouse assessed as increase in reaction time administered twice daily at dosing intervals of 12 hrs for 29 days by radiant heat tail flick assay; format: functional; conditions: CD-1, sc
# Mus musculus [21] = assay: Ratio of ED50 for sc dosed CD-1 mouse administered twice daily at dosing intervals of 12 hrs for 29 days to ED50 for sc dosed CD-1 mouse measured 15 mins post dose; format: functional
# Mus musculus [22] = assay: Antinociceptive activity in sc dosed CD-1 mouse assessed as increase in AUC of reaction time administered twice daily at dosing intervals of 12 hrs for 29 days by radiant heat tail flick assay relative to morphine; format: functional
# Mus musculus [23] = assay: Antinociceptive activity in sc dosed CD-1 mouse assessed as increase in reaction time administered four times per day for 5 days by radiant heat tail flick assay; format: functional; conditions: CD-1, sc, 120 h
# [24] = Toxicity in CD-1 mouse assessed as physical dependence by measuring number of jumps at 1.5 mg/kg, sc bid for 5 days followed by opioid antagonist naloxone injection on day 5 measured for 15 mins post last dose; format: organism-based; conditions: in vivo, 0.25 h
# [25] = Toxicity in CD-1 mouse assessed as inhibition of gastrointestinal transit by measuring distance traveled by charcoal at 1.5 mg/kg, sc followed by charcoal meal administration measured after 30 mins; format: organism-based; conditions: in vivo, 0.5 h
# [26] = Toxicity in CD-1 mouse assessed as inhibition of gastrointestinal transit by measuring distance traveled by charcoal at 4 mg/kg, sc followed by charcoal meal administration measured after 30 mins; format: organism-based; conditions: in vivo, 0.5 h
# [27] = Toxicity in C57BL/6 mouse assessed as decrease in respiratory rate at 1.2 mg/kg, sc measured at 15 to 35 mins post dose; format: organism-based; conditions: in vivo
# [28] = Toxicity in C57BL/6 mouse assessed as conditioned place preference at 1.3 to 3.2 mg/kg/day, ip measured for 30 mins post dose; format: organism-based; conditions: in vivo, 0.5 h
# [29] = Toxicity in C57BL/6 mouse assessed as conditioned place aversion at 1.3 to 3.2 mg/kg/day, ip measured for 30 mins post dose; format: organism-based; conditions: in vivo, 0.5 h
# T1 sequence (P33534 whole entry): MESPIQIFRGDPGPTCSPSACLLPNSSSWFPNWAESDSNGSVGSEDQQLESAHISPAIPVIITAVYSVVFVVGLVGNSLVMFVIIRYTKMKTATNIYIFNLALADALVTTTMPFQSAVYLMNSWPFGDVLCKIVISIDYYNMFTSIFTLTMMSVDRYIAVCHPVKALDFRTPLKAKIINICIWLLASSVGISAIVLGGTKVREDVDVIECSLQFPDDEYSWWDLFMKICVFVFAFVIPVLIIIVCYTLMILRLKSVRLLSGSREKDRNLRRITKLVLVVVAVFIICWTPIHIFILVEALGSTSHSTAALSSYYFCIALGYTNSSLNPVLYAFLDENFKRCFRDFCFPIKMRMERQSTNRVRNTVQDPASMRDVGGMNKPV
# 5-hydroxytryptamine receptor 7 (Homo sapiens), sequence (P34969 whole entry): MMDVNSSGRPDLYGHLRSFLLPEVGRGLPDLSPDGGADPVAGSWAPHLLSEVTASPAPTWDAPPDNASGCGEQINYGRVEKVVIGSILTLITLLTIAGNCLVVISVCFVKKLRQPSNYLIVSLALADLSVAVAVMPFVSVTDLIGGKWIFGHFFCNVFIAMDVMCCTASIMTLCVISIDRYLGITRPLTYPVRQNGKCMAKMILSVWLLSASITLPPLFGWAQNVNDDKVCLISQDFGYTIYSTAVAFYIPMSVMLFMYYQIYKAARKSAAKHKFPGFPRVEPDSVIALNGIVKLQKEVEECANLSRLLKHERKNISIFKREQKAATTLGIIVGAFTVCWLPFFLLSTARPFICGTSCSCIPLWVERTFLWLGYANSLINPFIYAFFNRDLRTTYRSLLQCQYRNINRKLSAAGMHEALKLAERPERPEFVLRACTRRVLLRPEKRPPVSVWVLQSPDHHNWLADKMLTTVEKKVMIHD
# Mu-type opioid receptor, sequence (P42866 whole entry): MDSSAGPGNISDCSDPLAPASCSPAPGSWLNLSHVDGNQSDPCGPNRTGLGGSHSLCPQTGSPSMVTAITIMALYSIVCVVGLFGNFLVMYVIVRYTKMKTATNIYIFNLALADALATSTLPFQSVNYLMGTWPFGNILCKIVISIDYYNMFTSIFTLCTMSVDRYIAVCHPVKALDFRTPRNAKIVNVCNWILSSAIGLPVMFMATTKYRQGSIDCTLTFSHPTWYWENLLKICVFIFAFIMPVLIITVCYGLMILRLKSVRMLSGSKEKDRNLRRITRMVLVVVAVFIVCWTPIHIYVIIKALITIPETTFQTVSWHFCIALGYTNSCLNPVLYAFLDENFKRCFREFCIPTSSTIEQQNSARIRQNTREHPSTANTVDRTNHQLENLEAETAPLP
# Mu-type opioid receptor (Mus musculus), sequence (P42866 whole entry): as above
# Delta-type opioid receptor, sequence (P32300 whole entry): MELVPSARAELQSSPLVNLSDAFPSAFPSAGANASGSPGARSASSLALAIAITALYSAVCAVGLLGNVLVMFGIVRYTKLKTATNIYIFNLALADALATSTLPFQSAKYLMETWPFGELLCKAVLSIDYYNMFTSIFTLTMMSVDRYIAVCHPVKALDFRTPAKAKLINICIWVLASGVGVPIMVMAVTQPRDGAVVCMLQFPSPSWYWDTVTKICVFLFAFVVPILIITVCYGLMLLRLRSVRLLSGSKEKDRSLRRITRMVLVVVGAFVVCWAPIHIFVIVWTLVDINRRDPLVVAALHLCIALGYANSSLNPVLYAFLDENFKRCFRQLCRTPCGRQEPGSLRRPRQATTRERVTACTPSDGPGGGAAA
smiles,measurement,setting,value
CC[C@@H]1CN2CC[C@]3(Nc4cccc(OC)c4C3=O)[C@@H]2C[C@@H]1/C(=C\OC)C(=O)OC,IC50,[1],61 nM
same,Ki,[2],24 nM
same,EC50,Mu-type opioid receptor,1.7 nM
same,Emax,[3],84%
same,IC50,[4],31 nM
same,inhibition,[5],Active
same,inhibition,[6],Active
same,ED50,Mus musculus [7],0.38 µg
same,Time,Mus musculus [8],15 min
same,Ratio ED50,Mus musculus [9],1.5
same,Activity,Mus musculus [10],Active
same,Activity,Mus musculus [11],Active
same,Activity,Mus musculus [12],inactive
same,Activity,Mus musculus [13],Active
same,Activity,Mus musculus [14],inactive
same,Activity,Mus musculus [15],Active
same,ED50,Mus musculus [16],> 30 mg/kg
same,ED50,Mus musculus [17],0.83 mg/kg
same,Time,[18],29 days
same,ED50,Mus musculus [19],1.1 mg/kg
same,ED50,Mus musculus [20],4.5 mg/kg
same,Ratio ED50,Mus musculus [21],6
same,fold change (FC),Mus musculus [22],6
same,ED50,Mus musculus [23],1.6 mg/kg
same,Activity,[24],12
same,Activity,[25],Toxic
same,Activity,[26],Non-Toxic
same,Activity,[27],Non-Toxic
same,Activity,[28],Non-Toxic
same,Activity,[29],Non-Toxic
